≈ marks a conversion by molar mass, not a printed value. Calls of active or inactive are those of the source. The calls are words filed in the database; no cut-off is given here.
Key:
[1] = Inhibition of Cryptosporidium parvum CDPK1 assessed as reduction in ATP consumption using BioSyntide-2 substrate incubated for 90 mins by luciferase reporter gene assay
[2] = Toxicity in human CRL-8155 cells; type: cell-based
HepG2 = assay: Toxicity in human HepG2 cells; type: cell-based
[3] = target: Proto-oncogene tyrosine-protein kinase Src (Homo sapiens, UniProt P12931); assay: Inhibition of SRC (unknown origin); type: ADME
Chain of Proto-oncogene tyrosine-protein kinase Src (P12931 2-536 limits assumed): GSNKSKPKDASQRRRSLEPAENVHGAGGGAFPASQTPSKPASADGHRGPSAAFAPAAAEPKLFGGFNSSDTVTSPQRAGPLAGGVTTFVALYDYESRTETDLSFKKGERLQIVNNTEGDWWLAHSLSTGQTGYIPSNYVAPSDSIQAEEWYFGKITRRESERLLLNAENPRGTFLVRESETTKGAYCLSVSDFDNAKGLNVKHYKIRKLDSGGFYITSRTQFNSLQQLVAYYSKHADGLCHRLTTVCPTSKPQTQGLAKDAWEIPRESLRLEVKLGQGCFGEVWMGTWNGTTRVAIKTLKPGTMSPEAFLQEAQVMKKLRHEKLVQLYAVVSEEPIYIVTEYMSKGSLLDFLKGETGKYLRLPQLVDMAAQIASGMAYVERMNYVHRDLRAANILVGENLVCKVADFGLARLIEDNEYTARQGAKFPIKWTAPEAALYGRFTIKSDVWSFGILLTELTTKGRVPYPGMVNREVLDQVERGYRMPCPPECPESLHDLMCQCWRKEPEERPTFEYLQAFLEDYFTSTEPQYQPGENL

[4] = Solubility in pH 2.0 solution
[5] = Clearance in mouse at 25 mg/kg, po; type: ADME, organism-based; settings: in vivo
[6] = AUC in mouse at 25 mg/kg, po; type: ADME, organism-based; design: dose 25 mg/kg; settings: in vivo
[7] = Drug level in mouse fecus at 25 mg/kg, po; settings: read-out: Drug uptake, in vivo
[8] = Solubility in pH 6.5 solution
Cryptosporidium parvum [9] = assay: Antimicrobial activity against nano-luciferase-expressing Cryptosporidium parvum infected in IFN-gamma KO B6.129S7-Ifngtm1Ts/J mouse assessed as log reduction of infection at 25 mg/kg, po QD for 5 days beginning on day 6 post infection relative untreated control; type: functional; settings: time 5 day
[10] = Protein binding in human plasma by dialysis method
[11] = Protein binding in mouse plasma by dialysis method
Cryptosporidium parvum [12] = assay: Antimicrobial activity against nano-luciferase-expressing Cryptosporidium parvum infected in IFN-gamma KO B6.129S7-Ifngtm1Ts/J mouse assessed as log reduction of infection at 60 mg/kg, po QD for 5 days beginning on day 6 post infection relative untreated control; settings: time 5 day
[13] = AUC in mouse at 10 mg/kg, po; type: ADME, organism-based; design: dose 10 mg/kg; settings: in vivo
[14] = Clearance in mouse at 10 mg/kg, po; type: ADME, organism-based; settings: in vivo
Cryptosporidium parvum [15] = assay: Antimicrobial activity against nano-luciferase-expressing Cryptosporidium parvum infected in IFN-gamma KO B6.129S7-Ifngtm1Ts/J mouse assessed as log reduction of infection at 30 mg/kg, po BID for 5 days beginning on day 6 post infection relative untreated control; type: functional, organism-based; settings: time 5.0 day
Cryptosporidium parvum [16] = assay: Antimicrobial activity against nano-luciferase-expressing Cryptosporidium parvum infected in human HCT8 cells incubated for 72 hrs by luciferase reporter gene assay; type: functional, organism-based; settings: HCT-8, 72 h
in vivo [17] = settings: mouse, po, 25 mg/kg
[18] = target: Voltage-gated inwardly rectifying potassium channel KCNH2 (Homo sapiens, UniProt Q12809); assay: Inhibition of human ERG by thallium flux assay
Chain of Voltage-gated inwardly rectifying potassium channel KCNH2 (Q12809 whole entry): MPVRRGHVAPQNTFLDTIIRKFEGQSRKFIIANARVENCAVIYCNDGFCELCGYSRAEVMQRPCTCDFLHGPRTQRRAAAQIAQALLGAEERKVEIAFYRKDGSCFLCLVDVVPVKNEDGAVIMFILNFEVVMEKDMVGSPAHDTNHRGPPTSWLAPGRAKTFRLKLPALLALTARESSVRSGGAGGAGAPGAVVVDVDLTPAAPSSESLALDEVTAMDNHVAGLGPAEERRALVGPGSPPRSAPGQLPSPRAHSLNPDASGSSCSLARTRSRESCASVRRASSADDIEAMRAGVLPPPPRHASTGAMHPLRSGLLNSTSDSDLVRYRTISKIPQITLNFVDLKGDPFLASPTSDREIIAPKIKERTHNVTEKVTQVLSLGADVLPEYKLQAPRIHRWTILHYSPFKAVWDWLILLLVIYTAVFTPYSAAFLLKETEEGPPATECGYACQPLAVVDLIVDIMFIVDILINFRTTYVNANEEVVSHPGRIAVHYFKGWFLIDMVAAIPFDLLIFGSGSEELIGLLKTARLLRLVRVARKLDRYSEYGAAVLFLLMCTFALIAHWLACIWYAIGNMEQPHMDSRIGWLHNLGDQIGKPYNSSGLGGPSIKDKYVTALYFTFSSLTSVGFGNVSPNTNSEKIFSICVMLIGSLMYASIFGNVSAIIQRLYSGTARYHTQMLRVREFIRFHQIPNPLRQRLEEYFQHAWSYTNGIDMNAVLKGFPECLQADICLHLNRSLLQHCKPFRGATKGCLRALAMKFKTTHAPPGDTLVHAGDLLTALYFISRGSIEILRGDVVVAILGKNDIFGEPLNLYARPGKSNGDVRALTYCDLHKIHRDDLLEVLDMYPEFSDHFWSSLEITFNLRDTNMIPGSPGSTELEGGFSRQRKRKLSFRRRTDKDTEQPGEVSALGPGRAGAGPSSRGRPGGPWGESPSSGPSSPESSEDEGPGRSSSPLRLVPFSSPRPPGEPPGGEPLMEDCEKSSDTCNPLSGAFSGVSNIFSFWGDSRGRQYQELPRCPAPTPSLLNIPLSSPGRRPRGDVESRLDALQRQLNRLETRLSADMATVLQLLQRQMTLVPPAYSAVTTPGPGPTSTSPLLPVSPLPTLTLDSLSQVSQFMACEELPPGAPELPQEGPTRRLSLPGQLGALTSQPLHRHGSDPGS

[19] = Half life in mouse at 25 mg/kg, po; settings: in vivo
in vivo [20] = settings: mouse, po, 25 mg/kg; remark: listed apart in the source

| Structure (SMILES) | IC50 [1] [nM] | Activity [2] | Activity (HepG2) | IC50 [3] [nM] | solubility ([4]; buffer) [µM] | CL/F [5] [mL/min] | AUC [6] [µmol·min/L] | concentration [7] [µM] | solubility ([8]; buffer) [µM] | also measured |
| --- | --- | --- | --- | --- | --- | --- | --- | --- | --- | --- |
| CC(C)(CCO)n1nc(-c2cnc3cc(OC4CC4)ccc3c2)c(C(N)=O)c1N | 3 | Non-Toxic | Non-Toxic | > 10000 | 88.8 (≈ 35.1 µg/mL) |  |  |  |  |  |
| CCOc1ccc2cc(-c3nn(C(C)(C)CO)c(N)c3C(N)=O)ccc2c1 | 9 | Non-Toxic | Non-Toxic | > 10000 | 18.8 (≈ 6.93 µg/mL) | 0.2 | 9365 | 7.1 | 8 (≈ 2.95 µg/mL) | log reduction (Cryptosporidium parvum [9]): 0.81 |
| CCOc1ccc2cc(-c3nn(C(C)CCO)c(N)c3C(N)=O)ccc2n1 (configuration not stated) |  | Non-Toxic | Non-Toxic |  |  |  |  |  |  |  |
| CC(C)(CO)n1nc(-c2cnc3cc(OC4CC4)ccc3c2)c(C(N)=O)c1N | 1.9 | Non-Toxic | Non-Toxic | > 10000 | 89 (≈ 33.9 µg/mL) |  |  |  | 44.2 (≈ 16.9 µg/mL) |  |
| CC(C)(CCO)n1nc(-c2ccc3nc(OC4CC4)ccc3c2)c(C(N)=O)c1N | 2.3 | Non-Toxic | Non-Toxic | > 10000 | 96 (≈ 38 µg/mL) | 6.7 | 193.6 |  | > 100 |  |
| CCOc1ccc2cc(-c3nn(C(C)(C)CCO)c(N)c3C(N)=O)ccc2n1 |  | Non-Toxic | Non-Toxic |  |  |  |  |  |  |  |
| CC(CCO)n1nc(-c2ccc3cc(OC4CC4)ccc3c2)c(C(N)=O)c1N (configuration not stated) | 6 | Non-Toxic | Non-Toxic | > 10000 | > 100 | 0.3 | 4332.8 | 10.3 | > 100 | PPB [10]: 95%; PPB [11]: 95%; FC (Cryptosporidium parvum [12]): 4.78 |
| CCOc1ccc2cc(-c3nn(C(C)(C)CCO)c(N)c3C(N)=O)cnc2c1 | 5.7 | Non-Toxic | Non-Toxic | 2500 | 87.9 (≈ 33.7 µg/mL) |  |  |  | > 100 |  |
| CC(C)(CO)Cn1nc(-c2cnc3cc(OC4CC4)ccc3c2)c(C(N)=O)c1N | 0.1 | Non-Toxic | Non-Toxic | > 10000 | > 100 |  |  |  | > 100 |  |
| C#CCOc1ccc2cc(-c3nn(C(C)(C)C)c(N)c3C(N)=O)ccc2c1 |  | Non-Toxic | Non-Toxic |  |  |  |  |  |  |  |
| CCOc1ccc2cc(-c3nn(CC(C)(C)CO)c(N)c3C(N)=O)ccc2n1 |  | Non-Toxic | Non-Toxic |  |  |  |  |  |  | AUC [13]: 140.2 µmol·min/L; CL/F [14]: 5.1 mL/min |
| CCOc1ccc2cc(-c3nn(C(C)(C)CO)c(N)c3C(N)=O)cnc2c1 | 4.1 | Non-Toxic | Non-Toxic | 4700 | > 50 | 1 | 50798.1 | 2.9 | > 50 |  |
| CC(C)(CO)n1nc(-c2ccc3cc(OC4CC4)ccc3c2)c(C(N)=O)c1N | 6.9 | Non-Toxic | Non-Toxic | > 10000 | 89 (≈ 33.9 µg/mL) | 0.3 | 41782 | 3.5 | 92.9 (≈ 35.3 µg/mL) | PPB [11]: 80%; FC (Cryptosporidium parvum [12]): 4.47 |
| CC(C)(CO)Cn1nc(-c2ccc3nc(OC4CC4)ccc3c2)c(C(N)=O)c1N |  | Non-Toxic | Non-Toxic |  |  |  |  |  |  |  |
| CCOc1ccc2cc(-c3nn(C(C)CCO)c(N)c3C(N)=O)ccc2c1 (configuration not stated) | 2 | Non-Toxic | Non-Toxic | 10000 | > 100 | 0.8 | 1738 |  | 56.7 (≈ 20.9 µg/mL) | Activity (Cryptosporidium parvum [15]): Active; PPB [10]: 88%; PPB [11]: 71%; FC (Cryptosporidium parvum [12]): 2.62 |
| CCOc1ccc2cc(-c3nn(C(C)CCO)c(N)c3C(N)=O)cnc2c1 (configuration not stated) |  | Non-Toxic | Non-Toxic | 3500 | 78 (≈ 28.8 µg/mL) |  |  | 1.1 | > 100 | AUC [13]: 339 µmol·min/L; PPB [10]: 84%; PPB [11]: 86%; CL/F [14]: 1.9 mL/min; FC (Cryptosporidium parvum [12]): 3.41 |
| CCOc1ccc2cc(-c3nn(CC4CC4)c(N)c3C(N)=O)ccc2c1 | 0.03 | Non-Toxic | Non-Toxic | 10000 |  | 0.5 | 2800.8 | 54 |  | PPB [10]: 95%; PPB [11]: 97%; log reduction (Cryptosporidium parvum [9]): 0.76 |
| CCOc1ccc2cc(-c3nn(CC(C)(C)CO)c(N)c3C(N)=O)ccc2c1 | 6.6 | Non-Toxic | Non-Toxic | 6300 | > 100 | 2.1 | 621.1 | 7.6 | 20.6 (≈ 7.88 µg/mL) | PPB [10]: 94%; PPB [11]: 92%; FC (Cryptosporidium parvum [12]): -0.03 |
| CC(CCO)n1nc(-c2ccc3nc(OC4CC4)ccc3c2)c(C(N)=O)c1N (configuration not stated) | 5.9 | Non-Toxic | Non-Toxic | > 10000 |  | 0.7 | 1154.1 |  |  | EC50 (Cryptosporidium parvum [16]): 600 nM; Tmax (in vivo [17]): 0.667 h; IC50 [18]: > 30000 nM; half-life [19]: 1.42 h; solubility ([8]; pH 6.5 solution): 98 µM (≈ 37.4 µg/mL); Cmax (in vivo [20]): 8.5 µM; fraction unbound [11]: 0.23; solubility ([4]; pH 2.0 solution): > 100 µM |
| CC(C)(CCO)n1nc(-c2ccc3cc(OC4CC4)ccc3c2)c(C(N)=O)c1N | 3.8 | Non-Toxic | Non-Toxic | > 10000 | > 100 | 1 | 483.2 |  |  |  |
| CC(CCO)n1nc(-c2cnc3cc(OC4CC4)ccc3c2)c(C(N)=O)c1N (configuration not stated) | 2 | Non-Toxic | Non-Toxic | > 10000 |  | 0.1 | 11769 | 4.5 |  | EC50 (Cryptosporidium parvum [16]): 430 nM; Tmax (in vivo [17]): 0.5 h; IC50 [18]: > 30000 nM; half-life [19]: 2.05 h; solubility ([8]; pH 6.5 solution): > 100 µM; fraction unbound [10]: 0.49; Cmax (in vivo [20]): 69.2 µM; solubility ([4]; pH 2.0 solution): > 100 µM |
| CC(C)(CO)n1nc(-c2ccc3nc(OC4CC4)ccc3c2)c(C(N)=O)c1N |  | Non-Toxic | Non-Toxic |  |  |  |  |  |  |  |
| CCOc1ccc2cc(-c3nn(CC(C)(C)CO)c(N)c3C(N)=O)cnc2c1 |  | Non-Toxic | Non-Toxic | > 10000 |  |  |  |  | > 100 |  |
